Three molecules from US8629137B2, “CGRP antagonists” (Boehringer Ingelheim International GmbH, priority 2007, dated 2014) can be followed below.

A word on the Ki: it is a measure of affinity in units of concentration, obtained from inhibition or displacement. Higher therefore signals a looser hold on the target.

This test deals with T1, human CGRP receptor (Homo sapiens, UniProt O60894+Q16602).
T1 construct: SK-N-MC cells are cultivated in “Dulbecco's modified Eagle medium”; endogenous in cells; host or cells: SK-N-MC cells (membrane homogenate)
T1 sequence (Q16602 23-461): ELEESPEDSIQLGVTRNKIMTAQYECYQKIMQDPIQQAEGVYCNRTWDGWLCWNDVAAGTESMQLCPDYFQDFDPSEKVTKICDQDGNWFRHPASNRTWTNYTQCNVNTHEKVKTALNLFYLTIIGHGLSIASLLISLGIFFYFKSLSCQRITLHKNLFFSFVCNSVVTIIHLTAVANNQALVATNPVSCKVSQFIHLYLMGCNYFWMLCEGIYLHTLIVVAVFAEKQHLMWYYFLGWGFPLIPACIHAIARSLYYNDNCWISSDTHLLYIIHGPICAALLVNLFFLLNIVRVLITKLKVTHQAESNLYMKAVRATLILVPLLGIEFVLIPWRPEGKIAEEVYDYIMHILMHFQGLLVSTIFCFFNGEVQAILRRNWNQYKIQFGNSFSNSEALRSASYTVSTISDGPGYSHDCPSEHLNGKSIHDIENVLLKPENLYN
T1 sequence (O60894 27-148): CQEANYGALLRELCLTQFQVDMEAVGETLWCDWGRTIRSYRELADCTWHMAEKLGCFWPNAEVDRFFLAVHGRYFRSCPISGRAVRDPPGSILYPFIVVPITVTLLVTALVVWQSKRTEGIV
The test can be described thus: Binding studies with SK-N-MC cells (expressing the human CGRP receptor). The following applies: SK-N-MC cell membranes, displacement of 125I-iodotyrosyl-CGRP. The protocol:
A. Binding Studies with SK-N-MC Cells (Expressing the Human CGRP Receptor)
SK-N-MC cells are cultivated in “Dulbecco's modified Eagle medium”. The medium is removed from confluent cultures. The cells are washed twice with PBS buffer (Gibco 041-04190 M), detached by the addition of PBS buffer mixed with 0.02% EDTA, and isolated by centrifuging. After resuspension in 20 ml of “Balanced Salts Solution” [BSS (in mM): NaCl 120, KCl 5.4, NaHCO3 16.2, MgSO4 0.8, NaHPO4 1.0, CaCl2 1.8, D-glucose 5.5, HEPES 30, pH 7.40] the cells are centrifuged twice at 100×g and resuspended in BSS. After the number of cells has been determined, the cells are homogenised using an Ultra-Turrax and centrifuged for 10 minutes at 3000×g. The supernatant is discarded and the pellet is recentrifuged in Tris buffer (10 mM Tris, 50 mM NaCl, 5 mM MgCl2, 1 mM EDTA, pH 7.40) enriched with 1% bovine serum albumin and 0.1% bacitracin, and resuspended (1 ml/1000000 cells). The homogenised product is frozen at −80° C. The membrane preparations are stable for more than 6 weeks under these conditions.
After thawing, the homogenised product is diluted 1:10 with assay buffer (50 mM Tris, 150 mM NaCl, 5 mM MgCl2, 1 mM EDTA, pH 7.40) and homogenised for 30 seconds with an Ultra-Turrax. 230 μl of the homogenised product are incubated for 180 minutes at ambient temperature with 50 pM ^125I-iodotyrosyl-Calcitonin-Gene-Related Peptide (Amersham) and increasing concentrations of the test substances in a total volume of 250 μl. The incubation is ended by rapid filtration through GF/B glass fibre filters treated with polyethyleneimine (0.1%) using a cell harvester. The protein-bound radioactivity is measured using a gamma counter. Non-specific binding is defined as the bound radioactivity after the presence of 1 μM human CGRP-alpha during incubation.
The concentration binding curves are analysed using computer-aided non-linear curve fitting.
Regarding `Cc1cc(C(=O)c2cc(N3CCC(n4c(=O)[nH]c5c6ccccc6ncc54)CC3)ncn2)cc2oc(=O)[nH]c12` [(4)], the affinity corresponds to a Ki of 1 nM.

As for `Cc1cc(C(=O)c2cc(N3CCC(n4nc(-c5ccccc5)[nH]c4=O)CC3)ncn2)cc2oc(=O)[nH]c12` [(3)], the Ki worked out at 4 nM.

Molecule `Cc1cc(C(=O)c2cc(N3CCC(n4c(=O)[nH]c5ncccc54)CC3)ncn2)cc2oc(=O)[nH]c12` [(1)] registered a Ki of 0.4 nM.
